Legend:
Experiment in all cases: biochemical
Parameters in all cases: KINOMEscan active-site competition binding panel (468 kinase assays), per cent of control at 1000 nM
Conditions in all cases: KINOMEscan per cent of control (binding competition); read-out: Percent Control
AURKA = AURKA (Homo sapiens, UniProt O14965)
Description: (§1) Figure S7 / Percent Control

SBK1 = SBK1 (Homo sapiens, UniProt Q52WX2)
Description: as §1

EGFR(T790M) = EGFR(T790M) (Homo sapiens, UniProt P00533, T790M)
Description: as §1

MERTK = MERTK (Homo sapiens, UniProt Q12866)
Description: as §1

MAP4K2 = MAP4K2 (Homo sapiens, UniProt Q12851)
Description: as §1

EGFR(E746-A750del) = EGFR(E746-A750del) (Homo sapiens, UniProt P00533, DEL746-750)
Description: as §1

[1] = target: T1, ABL1(Y253F)-phosphorylated (Homo sapiens, UniProt P00519, Y253F)
T1 construct: phosphorylated
Description: as §1

TAOK2 = TAOK2 (Homo sapiens, UniProt Q9UL54)
Description: as §1

EGFR(S752-I759del) = EGFR(S752-I759del) (Homo sapiens, UniProt P00533, DEL752-759)
Description: as §1

PRP4 = target: T2, PRP4 (Homo sapiens, UniProt Q13523)
T2 construct: gene PRPF4B
Description: as §1

FLT3(R834Q) = FLT3(R834Q) (Homo sapiens, UniProt P36888, R834Q)
Description: as §1

TNIK = TNIK (Homo sapiens, UniProt Q9UKE5)
Description: as §1

PIK3CA(I800L) = PIK3CA(I800L) (Homo sapiens, UniProt P42336, I800L)
Description: as §1

AAK1 = AAK1 (Homo sapiens, UniProt Q2M2I8)
Description: as §1

PIK3CA(C420R) = PIK3CA(C420R) (Homo sapiens, UniProt P42336, C420R)
Description: as §1

EPHB3 = EPHB3 (Homo sapiens, UniProt P54753)
Description: as §1

DRAK2 = target: T3, DRAK2 (Homo sapiens, UniProt O94768)
T3 construct: gene STK17B
Description: as §1

MEK2 = target: T4, MEK2 (Homo sapiens, UniProt P36507)
T4 construct: gene MAP2K2
Description: as §1

JNK2 = target: T5, JNK2 (Homo sapiens, UniProt P45984)
T5 construct: gene MAPK9
Description: as §1

CSNK1G1 = CSNK1G1 (Homo sapiens, UniProt Q9HCP0)
Description: as §1

[2] = target: T6, JAK2(JH1domain-catalytic) (Homo sapiens, UniProt O60674)
T6 construct: JH1domain-catalytic
Description: as §1

TYRO3 = TYRO3 (Homo sapiens, UniProt Q06418)
Description: as §1

CAMK2B = CAMK2B (Homo sapiens, UniProt Q13554)
Description: as §1

PCTK2 = target: T7, PCTK2 (Homo sapiens, UniProt Q00537)
T7 construct: gene CDK17
Description: as §1

Chain of PIK3CA(C420R) (P42336 whole entry C420R): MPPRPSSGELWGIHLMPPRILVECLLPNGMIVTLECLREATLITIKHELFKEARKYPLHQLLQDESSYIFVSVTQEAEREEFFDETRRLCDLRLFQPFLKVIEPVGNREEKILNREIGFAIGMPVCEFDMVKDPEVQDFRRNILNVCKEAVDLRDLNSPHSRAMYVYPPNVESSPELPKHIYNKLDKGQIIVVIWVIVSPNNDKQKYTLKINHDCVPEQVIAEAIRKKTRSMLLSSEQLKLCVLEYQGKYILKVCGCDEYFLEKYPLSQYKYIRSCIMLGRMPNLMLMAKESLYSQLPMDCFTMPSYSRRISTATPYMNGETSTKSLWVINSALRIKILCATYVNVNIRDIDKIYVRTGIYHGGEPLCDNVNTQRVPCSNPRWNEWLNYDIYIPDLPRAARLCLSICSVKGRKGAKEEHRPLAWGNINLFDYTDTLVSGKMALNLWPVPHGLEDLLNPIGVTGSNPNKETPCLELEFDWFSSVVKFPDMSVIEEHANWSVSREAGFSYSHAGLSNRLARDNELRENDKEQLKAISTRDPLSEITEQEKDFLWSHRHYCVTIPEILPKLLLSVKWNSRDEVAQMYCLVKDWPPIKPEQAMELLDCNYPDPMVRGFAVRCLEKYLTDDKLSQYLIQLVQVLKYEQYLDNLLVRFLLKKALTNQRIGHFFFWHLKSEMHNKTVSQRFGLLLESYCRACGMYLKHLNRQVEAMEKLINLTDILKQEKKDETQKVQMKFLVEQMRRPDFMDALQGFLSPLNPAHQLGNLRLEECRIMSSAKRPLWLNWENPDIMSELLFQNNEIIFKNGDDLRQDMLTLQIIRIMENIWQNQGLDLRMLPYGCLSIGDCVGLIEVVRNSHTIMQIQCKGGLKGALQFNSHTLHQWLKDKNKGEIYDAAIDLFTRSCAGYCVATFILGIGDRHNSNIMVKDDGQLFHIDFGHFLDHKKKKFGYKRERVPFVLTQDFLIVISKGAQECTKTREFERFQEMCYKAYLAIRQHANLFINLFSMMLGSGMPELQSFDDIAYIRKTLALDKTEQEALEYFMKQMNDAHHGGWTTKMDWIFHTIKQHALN
Chain of EPHB3 (P54753 whole entry): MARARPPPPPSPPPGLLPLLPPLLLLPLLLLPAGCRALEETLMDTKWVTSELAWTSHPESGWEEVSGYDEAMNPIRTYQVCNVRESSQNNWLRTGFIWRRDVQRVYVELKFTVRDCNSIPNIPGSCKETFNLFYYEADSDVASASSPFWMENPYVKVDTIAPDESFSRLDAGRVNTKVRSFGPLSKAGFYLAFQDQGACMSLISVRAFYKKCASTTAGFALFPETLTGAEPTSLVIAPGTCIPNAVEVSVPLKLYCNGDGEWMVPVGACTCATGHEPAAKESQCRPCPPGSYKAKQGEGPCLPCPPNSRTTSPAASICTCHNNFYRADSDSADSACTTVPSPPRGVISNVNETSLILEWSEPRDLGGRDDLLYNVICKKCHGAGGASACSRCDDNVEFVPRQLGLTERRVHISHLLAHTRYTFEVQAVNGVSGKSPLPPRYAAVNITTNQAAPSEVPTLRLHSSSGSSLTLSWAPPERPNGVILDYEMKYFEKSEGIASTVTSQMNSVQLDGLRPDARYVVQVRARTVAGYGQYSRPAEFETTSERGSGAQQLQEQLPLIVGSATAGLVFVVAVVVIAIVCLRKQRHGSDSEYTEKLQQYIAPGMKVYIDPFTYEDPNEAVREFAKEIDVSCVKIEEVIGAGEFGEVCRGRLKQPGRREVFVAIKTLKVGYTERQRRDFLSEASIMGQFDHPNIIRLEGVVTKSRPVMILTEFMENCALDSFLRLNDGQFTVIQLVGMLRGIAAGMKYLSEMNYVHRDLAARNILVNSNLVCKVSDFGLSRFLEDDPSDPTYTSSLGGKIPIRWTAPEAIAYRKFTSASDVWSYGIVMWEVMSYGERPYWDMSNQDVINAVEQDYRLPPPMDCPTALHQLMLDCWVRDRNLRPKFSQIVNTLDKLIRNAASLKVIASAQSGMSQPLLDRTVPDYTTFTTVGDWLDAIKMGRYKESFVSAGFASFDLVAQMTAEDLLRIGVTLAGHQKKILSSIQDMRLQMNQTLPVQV
Chain of AAK1 (Q2M2I8 whole entry): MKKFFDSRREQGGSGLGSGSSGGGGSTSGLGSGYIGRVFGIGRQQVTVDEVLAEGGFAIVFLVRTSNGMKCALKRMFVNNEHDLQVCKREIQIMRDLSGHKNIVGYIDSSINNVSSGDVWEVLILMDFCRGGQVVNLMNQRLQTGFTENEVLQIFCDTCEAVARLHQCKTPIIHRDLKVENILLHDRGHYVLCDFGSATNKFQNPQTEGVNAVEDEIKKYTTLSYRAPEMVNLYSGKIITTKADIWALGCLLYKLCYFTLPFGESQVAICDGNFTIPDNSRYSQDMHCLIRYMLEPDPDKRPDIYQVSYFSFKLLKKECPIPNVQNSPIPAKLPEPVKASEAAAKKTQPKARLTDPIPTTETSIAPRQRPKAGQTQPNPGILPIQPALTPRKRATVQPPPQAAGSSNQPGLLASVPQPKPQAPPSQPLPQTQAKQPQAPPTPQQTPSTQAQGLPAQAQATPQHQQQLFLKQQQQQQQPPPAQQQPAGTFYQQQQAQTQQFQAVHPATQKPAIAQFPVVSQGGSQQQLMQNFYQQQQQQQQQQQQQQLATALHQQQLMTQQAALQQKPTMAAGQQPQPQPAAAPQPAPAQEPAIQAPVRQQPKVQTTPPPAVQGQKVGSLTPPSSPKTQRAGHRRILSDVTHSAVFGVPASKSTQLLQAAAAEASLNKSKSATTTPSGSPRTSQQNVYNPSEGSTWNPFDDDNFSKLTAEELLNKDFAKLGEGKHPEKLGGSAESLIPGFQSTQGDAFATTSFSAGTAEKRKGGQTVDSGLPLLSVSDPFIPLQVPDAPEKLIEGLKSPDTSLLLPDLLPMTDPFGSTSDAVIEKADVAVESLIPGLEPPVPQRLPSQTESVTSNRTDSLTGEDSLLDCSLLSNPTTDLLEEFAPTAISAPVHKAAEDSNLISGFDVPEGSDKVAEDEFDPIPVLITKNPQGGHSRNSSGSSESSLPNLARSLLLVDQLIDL
Chain of TAOK2 (Q9UL54 whole entry): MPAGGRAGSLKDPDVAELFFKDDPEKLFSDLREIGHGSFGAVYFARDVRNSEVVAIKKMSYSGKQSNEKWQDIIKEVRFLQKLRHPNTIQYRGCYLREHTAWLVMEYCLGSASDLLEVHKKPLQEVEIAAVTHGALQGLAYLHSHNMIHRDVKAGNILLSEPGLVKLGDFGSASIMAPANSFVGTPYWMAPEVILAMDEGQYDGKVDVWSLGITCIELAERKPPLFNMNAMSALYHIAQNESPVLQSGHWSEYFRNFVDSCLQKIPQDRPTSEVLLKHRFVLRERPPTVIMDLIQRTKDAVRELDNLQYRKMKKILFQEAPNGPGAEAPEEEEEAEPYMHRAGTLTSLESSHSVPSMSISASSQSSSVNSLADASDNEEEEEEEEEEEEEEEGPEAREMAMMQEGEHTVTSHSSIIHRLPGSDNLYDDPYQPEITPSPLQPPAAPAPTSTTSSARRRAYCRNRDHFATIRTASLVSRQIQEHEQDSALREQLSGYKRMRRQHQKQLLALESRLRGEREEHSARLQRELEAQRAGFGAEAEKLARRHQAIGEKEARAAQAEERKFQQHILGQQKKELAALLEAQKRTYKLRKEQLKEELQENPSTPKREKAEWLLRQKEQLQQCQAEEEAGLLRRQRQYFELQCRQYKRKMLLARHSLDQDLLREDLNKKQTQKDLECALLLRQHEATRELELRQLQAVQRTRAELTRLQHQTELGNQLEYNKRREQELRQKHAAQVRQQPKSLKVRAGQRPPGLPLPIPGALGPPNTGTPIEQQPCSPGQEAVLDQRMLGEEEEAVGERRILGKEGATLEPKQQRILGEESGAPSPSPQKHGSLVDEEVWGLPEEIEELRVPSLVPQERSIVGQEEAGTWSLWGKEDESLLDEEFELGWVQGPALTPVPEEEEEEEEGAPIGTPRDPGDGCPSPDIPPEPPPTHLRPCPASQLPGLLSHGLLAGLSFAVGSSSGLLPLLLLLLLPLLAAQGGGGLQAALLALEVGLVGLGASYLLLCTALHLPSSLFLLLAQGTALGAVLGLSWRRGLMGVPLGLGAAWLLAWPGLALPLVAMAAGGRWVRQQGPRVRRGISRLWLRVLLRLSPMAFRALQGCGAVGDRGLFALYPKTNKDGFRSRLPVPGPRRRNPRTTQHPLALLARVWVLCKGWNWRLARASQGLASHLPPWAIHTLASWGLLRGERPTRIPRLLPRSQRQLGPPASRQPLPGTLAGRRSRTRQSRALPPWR
Chain of AURKA (O14965 whole entry): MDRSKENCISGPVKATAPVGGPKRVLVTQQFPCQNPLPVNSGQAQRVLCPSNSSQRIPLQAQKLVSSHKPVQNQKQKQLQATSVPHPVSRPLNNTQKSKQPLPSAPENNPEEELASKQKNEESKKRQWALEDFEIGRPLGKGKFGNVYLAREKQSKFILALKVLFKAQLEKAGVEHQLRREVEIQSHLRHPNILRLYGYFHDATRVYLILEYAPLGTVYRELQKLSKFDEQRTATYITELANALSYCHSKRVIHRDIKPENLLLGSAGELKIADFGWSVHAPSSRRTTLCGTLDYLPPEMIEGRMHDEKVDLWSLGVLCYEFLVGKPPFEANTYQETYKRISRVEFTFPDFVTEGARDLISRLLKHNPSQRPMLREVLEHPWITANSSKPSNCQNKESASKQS
T4 sequence (P36507 whole entry): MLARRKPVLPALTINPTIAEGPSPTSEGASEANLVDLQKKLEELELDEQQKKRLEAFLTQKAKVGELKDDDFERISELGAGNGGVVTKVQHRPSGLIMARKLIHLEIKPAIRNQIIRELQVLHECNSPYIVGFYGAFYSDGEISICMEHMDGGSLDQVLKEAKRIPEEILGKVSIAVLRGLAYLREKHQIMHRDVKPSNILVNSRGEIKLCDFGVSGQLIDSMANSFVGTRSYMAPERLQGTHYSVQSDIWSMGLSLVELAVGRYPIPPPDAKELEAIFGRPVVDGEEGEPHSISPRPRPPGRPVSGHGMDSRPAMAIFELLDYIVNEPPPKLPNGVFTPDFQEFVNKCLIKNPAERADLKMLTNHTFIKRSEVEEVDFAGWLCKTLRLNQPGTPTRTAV

Compound: Cn1c(=O)[nH]c2ccc(-c3cccc(C(=O)NC4CCn5ccnc5C4)c3)cc21 (stereo not drawn) [Z36-MP5]
- remaining binding at 1 µM (AURKA): 56%
- remaining binding at 1 µM (SBK1): 74%
- remaining binding at 1 µM (EGFR(T790M)): 44%
- remaining binding at 1 µM (MERTK): 70%
- remaining binding at 1 µM (MAP4K2): 81%
- remaining binding at 1 µM (EGFR(E746-A750del)): 63%
- remaining binding at 1 µM [1]: 72%
- remaining binding at 1 µM (TAOK2): 87%
- remaining binding at 1 µM (EGFR(S752-I759del)): 55%
- remaining binding at 1 µM (PRP4): 84%
- remaining binding at 1 µM (FLT3(R834Q)): 40%
- remaining binding at 1 µM (TNIK): 98%
- remaining binding at 1 µM (PIK3CA(I800L)): 94%
- remaining binding at 1 µM (AAK1): 91%
- remaining binding at 1 µM (PIK3CA(C420R)): 91%
- remaining binding at 1 µM (EPHB3): 78%
- remaining binding at 1 µM (DRAK2): 79%
- remaining binding at 1 µM (MEK2): 58%
- remaining binding at 1 µM (JNK2): 54%
- remaining binding at 1 µM (CSNK1G1): 63%
- remaining binding at 1 µM [2]: 74%
- remaining binding at 1 µM (TYRO3): 100%
- remaining binding at 1 µM (CAMK2B): 91%
- remaining binding at 1 µM (PCTK2): 94%
